# According to patent US20260232681A1, “CRYSTALLINE FORMS OF N-[4-[4-(4-MORPHOLINYL)-7H-PYRROLO[2,3-D]PYRIMIDIN-6- YL]PHENYL]-4-[[3(R)-[(L-OXO-2-PROPEN-L-YL)AMINO]-L-PIPERIDINYL]METHYL]-2-PYRIDINECARBOXAMIDE AS A COVALENT INHIBITOR OF MENIN-MLL INTERACTION” (BIOMEA FUSION, INC., priority 2023, published 2026):
# “Also recorded” adds a separate entry of the source.
# What was measured:
# [1] = tested on: type 2 diabetes mellitus adult subjects; experiment: Clinical study in healthy and type 2 diabetes mellitus subjects (SAD, food effect, MAD; Example 111); format: in vivo, human
# Method: In Experimental Phase 1 (SAD cohorts), 40 healthy adult subjects were randomized into 4 dose escalating cohorts of 10. In each cohort, subjects were randomized at 7:3 (active and placebo) in sequential order. Each cohort was composed of 2 sentinel subjects randomized at 1:1 (active and placebo), followed by 8 additional subjects randomized at 3:1 (active and placebo). Doses were 100 mg, 200 mg, 400 mg, and 600 mg.
# In Experimental Phase 1 (3-period crossover, food effect study), each cohort of 12 healthy adult subjects was randomized at 1:1:1:1:1:1 in a 3-period crossover study with 6 treatment sequences.
# In Experimental Phase 2 (MAD cohorts), 1 cohort of 16 healthy adult subjects was randomized at 3:1 (active and placebo), and 7 cohorts of type 2 diabetes mellitus adult subjects were randomized at 5:1 (active and placebo) to obtain safety and efficacy data to identify the potential optimal biological dose (OBD) and a recommended Phase 2 dose (RP2D). Doses were 100 mg, 200 mg, 400 mg, and 600 mg.
# [2] = tested on: DLBCL cell lines (DHL, THL, DEL, GCB); experiment: DLBCL cell line proliferation (Cell Titer Glo, four days); format: cell-based
# Method: (§1) Compound A was tested against a THL cell line (VAL), and a DEL cell line (U2932). An expanded panel of DHL cell lines were tested for sensitivity to Compound A. Ex vivo patient samples of THL and MYC-amplified DLBCL were tested with Compound A. Sensitivity of THL and MYC-driven DLBCL in both in vitro and ex vivo models were compared with clinical reversible menin inhibitors. Compound A was tested against a panel of MM cell lines and ex vivo MM patient samples of p53del, 13qdel, and relapsed/refractory cases.
# (§2) DLBCL cell line TOLEDO was cultured in the presence of Compound A or clinical reversible menin inhibitors for six and fourteen hours. Menin protein expression was reduced up to 60% at 1 μM by Compound A after fourteen hours compared to clinical reversible inhibitors at <20% at similar concentrations. Menin protein expression was measured by the Wes system and analyzed using the Compass software (automated western blotting, Protein Simple). Signal was normalized to GAPDH and referenced to DMSO control (FIG. 171E). DLBCL and MM cell lines were cultured with Compound A, bortezomib (PS-341), or DMSO for four days and cell proliferation was measured by Cell Titer Glo. Ex vivo studies of DLBCL and MM models were conducted by measurement of cell proliferation (Cell Titer Glo) after six days of treatment with Compound A, PS-341, or DMSO control.
# MM cell lines = experiment: MM cell line proliferation (Cell Titer Glo, four days); format: cell-based
# Method: as §1, §2
# [3] = tested on: Zucker Diabetic Fatty (ZDF) rats; experiment: Glycemic control and HbA1c in ZDF rats, 28-day dosing plus 28-day washout (Examples 104, 106); format: in vivo
# Method: Rats were treated daily with Compound 10, liraglutide, or vehicle for twnety-eight days and monitored for an additional twenty-eight days post-treatment.
# Zucker Diabetic Fatty (ZDF) rats were dosed daily with Compound 10, liraglutide, or vehicle for twenty-eight days (n=10 per group) and monitored for an additional twenty-eight days post last dose. Fasting blood glucose, insulin, C-peptide levels, HbA1c, oral glucose tolerance test (OGTT), and body weight were monitored during and post-treatment.
# ZDF Rat Model—five treatment groups 1. Vehicle; 2. Compound 10 at 40 mg/kg; 3. Compound 10 at 85 mg/kg; 4. Compound 10 at 170 mg/kg; and 5. Liraglutide at 0.2 mg/kg; n=10 per group. Group 2 dose (40 mg/kg) was increased to 200 mg/kg on Day 17 for rest of the dosing phase. Daily dosing zero to twenty-eight days days QD→drug wash out twenty-eight to fifty-six days. Rats were monitored for the following parameters through dosing and wash out phases—body weight, fasting blood sugar, blood insulin, C-peptide, OGTT, and HbA1C.
# [4] = tested on: Human ex vivo PDX tissue models harboring KRAS mutations; experiment: Ex vivo KRAS-mutated PDX tissue viability (CellTiter Glo, six days); format: cell-based; settings: six-day treatment, all samples
# Method: MOLM-13 and MiaPaCa-2 cells were incubated with Compound A for twenty-four hours and were analyzed by RNA-seq on an Illumina NextSeq 550 platform. […] Cell viability was measured using CellTiterGlo. Human ex vivo PDX tissue models harboring KRAS mutations were cultured with Compound A and clinical reversible menin inhibitors for six days. Cell viability was measured using CellTiter Glo.
# [5] = tested on: patient-derived DLBCL Triple Hit Lymphoma (THL) and MYC-amplified PDX samples; experiment: Ex vivo DLBCL PDX samples (THL, MYC-amplified), six days; format: cell-based, human; settings: THL/R-CHOP-refractory and MYC amplification/R-EPOCH refractory profiles
# Method: as §1, §2
compound,measurement,setting,value
"C=CC(=O)N[C@@H]1CCCN(Cc2ccnc(C(=O)Nc3ccc(-c4cc5c(N6CCOCC6)ncnc5[nH]4)cc3)c2)C1 [Compound A, N-[4-[4-(4-morpholinyl)-7H-pyrrolo[2,3-d]pyrimidin-6-yl]phenyl]-4-[[3(R)-[(1-oxo-2-propen-1-yl)amino]-1-piperidinyl]methyl]-2-pyridinecarboxamide]",episodes of symptomatic hypoglycemia,[1]; human patients,No episodes
same,severe or serious TEAEs,[1]; human subjects,No severe or serious TEAEs
same,safety profile,"[1]; human subjects, 4 weeks of treatment",well-tolerated
same,cell lethality,"[2]; DHL, THL, and DEL DLBCL cell lines, four days",> 90%
same,growth inhibition of THL and DEL cell line models,"[2]; VAL, U2932",complete growth inhibition
same,cell lethality,MM cell lines,> 99%
same,glycemic control by oral glucose tolerance test (OGTT),"[3]; Day 25, versus vehicle",improved glycemic control
same,tolerability,[3]; daily for 28 days,tolerated Compound 10 well
same,HbA1c at all doses tested,[3]; effects lasting fifteen days after the last dose,significant reductions
same,4-hour fasting blood glucose,"[3]; high-dose arm, up to Day 29, listed as Compound 10",strong reduction; also recorded: sustained and significant reduction
same,growth of ex vivo preclinical models,[4],Complete abrogation of growth
same,growth inhibition of ex vivo patient samples,[5],complete growth inhibition
